Numbers after ± are expanded uncertainties.
Experiments:
[1] = mn = molality of the nth substance listed, in mol/kg; details: 101.3 kPa, Liquid, m2 = 0; for viscosity: Capillary tube (Ostwald / Ubbelohde) method; for mass density: Pycnometric method
[2] = 101.3 kPa, Liquid; for viscosity: Capillary tube (Ostwald / Ubbelohde) method; for mass density: Pycnometric method

Row | Structure (SMILES) | viscosity ([1]; 275.15 K) | mass density ([1]; 275.15 K) | viscosity ([1]; 277.15 K) | mass density ([1]; 277.15 K) | viscosity ([1]; 279.15 K) | mass density ([1]; 279.15 K) | viscosity ([2]; 275.15 K) | mass density ([2]; 275.15 K) | viscosity ([2]; 277.15 K) | mass density ([2]; 277.15 K) | viscosity ([2]; 279.15 K) | mass density ([2]; 279.15 K)
1 | O [water] + O=C(O)c1cccnc1 | 1.674 ± 0.036 mPa·s | 999.94 ± 0.92 kg/m3 | 1.567 ± 0.034 mPa·s | 999.97 ± 0.92 kg/m3 | 1.472 ± 0.032 mPa·s | 999.94 ± 0.92 kg/m3 | – | – | – | – | – | –
2 | O [water] | – | – | – | – | – | – | 1.674 ± 0.036 mPa·s | 999.94 ± 0.92 kg/m3 | 1.567 ± 0.034 mPa·s | 999.97 ± 0.92 kg/m3 | 1.472 ± 0.032 mPa·s | 999.94 ± 0.92 kg/m3
3 | O [water] + NC(=O)c1cccnc1 | 1.674 ± 0.036 mPa·s | 999.94 ± 0.92 kg/m3 | 1.567 ± 0.034 mPa·s | 999.97 ± 0.92 kg/m3 | 1.472 ± 0.032 mPa·s | 999.94 ± 0.92 kg/m3 | – | – | – | – | – | –
